Key:
MEK5 = biological target: T1, MEK5 (Homo sapiens, UniProt Q13163); assay: KINOMEscan at […], single concentration; type: binding
T1 construct: gene MAP2K5

CSNK2A1 = CSNK2A1 (Homo sapiens, UniProt P68400); assay: biochemical; parameters: KINOMEscan competition binding panel (Eurofins DiscoverX), single concentration, percent inhibition; details: read-out: 15 at 1 µM % inhibition
Description: (§1) KinomeScan® Assay on 7 and 15 was performed as previously described by EuroFins DiscoverX [24]. GSK114 (7) and 15 were submitted for a KINOMEscan® assay to explore the selectivity profile across >400 human kinases at a compound concentration of 1 µM. […] GSK114 (7) is a narrow-spectrum TNNi3K inhibitor but has some potent off-targets including GAK which has been previously reported for this chemotype. […] If utilized together this set of compounds could be useful to investigate TNNi3K biology.

FGFR2 = FGFR2 (Homo sapiens, UniProt P21802); assay: biochemical; parameters: KINOMEscan competition binding panel (Eurofins DiscoverX), single concentration, percent inhibition; details: read-out: 15 at 1 µM % inhibition
Description: as §1

[1] = biological target: T2, ABL1(M351T)-phosphorylated (Homo sapiens, UniProt P00519, M351T); assay: biochemical; parameters: KINOMEscan competition binding panel (Eurofins DiscoverX), single concentration, percent inhibition; details: read-out: 15 at 1 µM % inhibition
T2 construct: phosphorylated
Description: as §1

PRKD2 = PRKD2 (Homo sapiens, UniProt Q9BZL6); assay: biochemical; parameters: KINOMEscan competition binding panel (Eurofins DiscoverX), single concentration, percent inhibition; details: read-out: 15 at 1 µM % inhibition
Description: as §1

PIM3 = PIM3 (Homo sapiens, UniProt Q86V86); assay: biochemical; parameters: KINOMEscan competition binding panel (Eurofins DiscoverX), single concentration, percent inhibition; details: read-out: 15 at 1 µM % inhibition
Description: as §1

FGFR4 = FGFR4 (Homo sapiens, UniProt P22455); assay: biochemical; parameters: KINOMEscan competition binding panel (Eurofins DiscoverX), single concentration, percent inhibition; details: read-out: 15 at 1 µM % inhibition
Description: as §1

PCTK3 = biological target: T3, PCTK3 (Homo sapiens, UniProt Q07002); assay: biochemical; parameters: KINOMEscan competition binding panel (Eurofins DiscoverX), single concentration, percent inhibition; details: read-out: 15 at 1 µM % inhibition
T3 construct: gene CDK18
Description: as §1

CDK3 = CDK3 (Homo sapiens, UniProt Q00526); assay: biochemical; parameters: KINOMEscan competition binding panel (Eurofins DiscoverX), single concentration, percent inhibition; details: read-out: 15 at 1 µM % inhibition
Description: as §1

TESK1 = TESK1 (Homo sapiens, UniProt Q15569); assay: biochemical; parameters: KINOMEscan competition binding panel (Eurofins DiscoverX), single concentration, percent inhibition; details: read-out: 15 at 1 µM % inhibition
Description: as §1

CDK4-cyclinD3 = biological target: T4, CDK4-cyclinD3 (Homo sapiens, UniProt P11802); assay: biochemical; parameters: KINOMEscan competition binding panel (Eurofins DiscoverX), single concentration, percent inhibition; details: read-out: 15 at 1 µM % inhibition
T4 construct: cyclinD3
Description: as §1

ITK = ITK (Homo sapiens, UniProt Q08881); assay: biochemical; parameters: KINOMEscan competition binding panel (Eurofins DiscoverX), single concentration, percent inhibition; details: read-out: 15 at 1 µM % inhibition
Description: as §1

MKNK1 = MKNK1 (Homo sapiens, UniProt Q9BUB5); assay: biochemical; parameters: KINOMEscan competition binding panel (Eurofins DiscoverX), single concentration, percent inhibition; details: read-out: 15 at 1 µM % inhibition
Description: as §1

KIT(V559D) = KIT(V559D) (Homo sapiens, UniProt P10721, V559D); assay: biochemical; parameters: KINOMEscan competition binding panel (Eurofins DiscoverX), single concentration, percent inhibition; details: read-out: 15 at 1 µM % inhibition
Description: as §1

NEK7 = NEK7 (Homo sapiens, UniProt Q8TDX7); assay: biochemical; parameters: KINOMEscan competition binding panel (Eurofins DiscoverX), single concentration, percent inhibition; details: read-out: 15 at 1 µM % inhibition
Description: as §1

AURKB = AURKB (Homo sapiens, UniProt Q96GD4); assay: biochemical; parameters: KINOMEscan competition binding panel (Eurofins DiscoverX), single concentration, percent inhibition; details: read-out: 15 at 1 µM % inhibition
Description: as §1

[2] = biological target: T5, TYK2(JH1domain-catalytic) (Homo sapiens, UniProt P29597); assay: biochemical; parameters: KINOMEscan competition binding panel (Eurofins DiscoverX), single concentration, percent inhibition; details: read-out: 15 at 1 µM % inhibition
T5 construct: JH1domain-catalytic
Description: as §1

MLK3 = biological target: T6, MLK3 (Homo sapiens, UniProt Q16584); assay: biochemical; parameters: KINOMEscan competition binding panel (Eurofins DiscoverX), single concentration, percent inhibition; details: read-out: 15 at 1 µM % inhibition
T6 construct: gene MAP3K11
Description: as §1

DRAK2 = biological target: T7, DRAK2 (Homo sapiens, UniProt O94768); assay: biochemical; parameters: KINOMEscan competition binding panel (Eurofins DiscoverX), single concentration, percent inhibition; details: read-out: 15 at 1 µM % inhibition
T7 construct: gene STK17B
Description: as §1

PIK3CD = PIK3CD (Homo sapiens, UniProt O00329); assay: biochemical; parameters: KINOMEscan competition binding panel (Eurofins DiscoverX), single concentration, percent inhibition; details: read-out: 15 at 1 µM % inhibition
Description: as §1

ERK4 = biological target: T8, ERK4 (Homo sapiens, UniProt P31152); assay: biochemical; parameters: KINOMEscan competition binding panel (Eurofins DiscoverX), single concentration, percent inhibition; details: read-out: 15 at 1 µM % inhibition
T8 construct: gene MAPK4
Description: as §1

CSNK1G3 = CSNK1G3 (Homo sapiens, UniProt Q9Y6M4); assay: biochemical; parameters: KINOMEscan competition binding panel (Eurofins DiscoverX), single concentration, percent inhibition; details: read-out: 15 at 1 µM % inhibition
Description: as §1

CAMK1B = biological target: T9, CAMK1B (Homo sapiens, UniProt Q6P2M8); assay: biochemical; parameters: KINOMEscan competition binding panel (Eurofins DiscoverX), single concentration, percent inhibition; details: read-out: 15 at 1 µM % inhibition
T9 construct: gene PNCK
Description: as §1

GAK = GAK (Homo sapiens, UniProt O14976); assay: KINOMEscan at […], single concentration; type: binding
STK36 = STK36 (Homo sapiens, UniProt Q9NRP7); assay: KINOMEscan at […], single concentration; type: binding

T1 sequence (Q13163 whole entry): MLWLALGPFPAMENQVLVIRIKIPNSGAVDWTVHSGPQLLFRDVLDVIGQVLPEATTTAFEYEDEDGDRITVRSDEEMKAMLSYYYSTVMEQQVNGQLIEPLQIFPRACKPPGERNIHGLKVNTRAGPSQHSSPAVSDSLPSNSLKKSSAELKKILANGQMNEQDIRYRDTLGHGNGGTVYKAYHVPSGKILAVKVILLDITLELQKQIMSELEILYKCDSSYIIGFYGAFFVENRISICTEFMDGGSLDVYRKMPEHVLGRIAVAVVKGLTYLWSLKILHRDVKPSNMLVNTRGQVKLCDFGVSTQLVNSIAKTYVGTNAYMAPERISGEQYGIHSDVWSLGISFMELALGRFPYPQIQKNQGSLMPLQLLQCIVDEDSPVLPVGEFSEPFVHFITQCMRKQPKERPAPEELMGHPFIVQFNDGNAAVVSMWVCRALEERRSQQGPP
TESK1, sequence (Q15569 whole entry): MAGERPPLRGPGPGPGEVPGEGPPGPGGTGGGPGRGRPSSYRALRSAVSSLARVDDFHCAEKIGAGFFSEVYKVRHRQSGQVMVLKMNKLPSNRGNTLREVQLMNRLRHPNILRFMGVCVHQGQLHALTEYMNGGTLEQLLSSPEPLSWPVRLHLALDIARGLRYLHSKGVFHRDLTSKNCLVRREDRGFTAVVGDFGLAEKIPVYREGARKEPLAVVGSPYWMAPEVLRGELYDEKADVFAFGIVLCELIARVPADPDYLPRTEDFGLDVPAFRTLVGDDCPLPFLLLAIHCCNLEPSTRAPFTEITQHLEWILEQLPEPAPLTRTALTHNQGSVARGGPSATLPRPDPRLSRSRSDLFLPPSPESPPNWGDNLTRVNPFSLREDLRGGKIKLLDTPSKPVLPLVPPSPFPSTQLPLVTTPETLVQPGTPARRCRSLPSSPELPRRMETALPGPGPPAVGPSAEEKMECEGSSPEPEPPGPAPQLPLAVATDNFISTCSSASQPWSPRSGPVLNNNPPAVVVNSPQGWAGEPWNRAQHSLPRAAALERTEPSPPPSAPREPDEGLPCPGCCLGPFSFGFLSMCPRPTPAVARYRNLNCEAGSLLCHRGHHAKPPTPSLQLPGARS
PRKD2, sequence (Q9BZL6 whole entry): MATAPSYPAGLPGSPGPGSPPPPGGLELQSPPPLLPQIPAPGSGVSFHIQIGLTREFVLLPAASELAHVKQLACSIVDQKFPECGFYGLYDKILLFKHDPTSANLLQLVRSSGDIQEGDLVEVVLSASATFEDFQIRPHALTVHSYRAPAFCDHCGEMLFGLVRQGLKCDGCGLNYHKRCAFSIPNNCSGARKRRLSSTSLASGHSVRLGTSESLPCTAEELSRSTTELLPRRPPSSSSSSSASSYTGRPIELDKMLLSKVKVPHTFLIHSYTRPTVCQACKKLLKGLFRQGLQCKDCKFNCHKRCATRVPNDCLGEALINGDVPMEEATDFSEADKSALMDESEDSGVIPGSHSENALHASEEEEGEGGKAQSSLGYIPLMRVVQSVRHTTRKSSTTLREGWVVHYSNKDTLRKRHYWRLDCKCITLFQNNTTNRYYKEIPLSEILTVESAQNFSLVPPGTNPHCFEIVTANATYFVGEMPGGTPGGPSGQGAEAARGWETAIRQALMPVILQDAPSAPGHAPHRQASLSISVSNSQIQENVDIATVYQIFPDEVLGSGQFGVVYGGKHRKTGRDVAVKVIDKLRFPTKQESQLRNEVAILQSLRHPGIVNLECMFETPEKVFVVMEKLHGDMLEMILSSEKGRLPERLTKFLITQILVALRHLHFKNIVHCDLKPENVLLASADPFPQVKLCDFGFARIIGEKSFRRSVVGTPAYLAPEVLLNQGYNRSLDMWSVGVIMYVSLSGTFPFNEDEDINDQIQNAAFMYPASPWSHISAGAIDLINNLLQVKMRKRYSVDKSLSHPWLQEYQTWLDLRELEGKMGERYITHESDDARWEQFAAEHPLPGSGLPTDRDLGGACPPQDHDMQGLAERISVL
CDK3, sequence (Q00526 whole entry): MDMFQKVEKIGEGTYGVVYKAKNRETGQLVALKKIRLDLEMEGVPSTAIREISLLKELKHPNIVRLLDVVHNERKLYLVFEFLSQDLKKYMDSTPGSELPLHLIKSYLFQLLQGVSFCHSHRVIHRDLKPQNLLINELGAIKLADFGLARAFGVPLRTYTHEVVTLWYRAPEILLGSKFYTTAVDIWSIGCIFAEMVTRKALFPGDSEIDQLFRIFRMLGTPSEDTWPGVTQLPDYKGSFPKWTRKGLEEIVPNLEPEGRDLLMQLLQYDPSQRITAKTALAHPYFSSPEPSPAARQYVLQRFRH
T7 sequence (O94768 whole entry): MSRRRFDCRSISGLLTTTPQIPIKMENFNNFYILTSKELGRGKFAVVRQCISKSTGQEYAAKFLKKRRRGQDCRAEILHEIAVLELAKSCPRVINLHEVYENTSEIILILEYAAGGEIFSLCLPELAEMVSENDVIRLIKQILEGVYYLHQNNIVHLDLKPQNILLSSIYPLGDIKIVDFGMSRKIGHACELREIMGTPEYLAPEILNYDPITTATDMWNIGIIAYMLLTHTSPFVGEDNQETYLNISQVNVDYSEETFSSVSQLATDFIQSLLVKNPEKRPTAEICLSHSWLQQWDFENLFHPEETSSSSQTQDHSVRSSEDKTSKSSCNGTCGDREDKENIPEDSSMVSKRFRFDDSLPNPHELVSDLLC
CSNK2A1, sequence (P68400 whole entry): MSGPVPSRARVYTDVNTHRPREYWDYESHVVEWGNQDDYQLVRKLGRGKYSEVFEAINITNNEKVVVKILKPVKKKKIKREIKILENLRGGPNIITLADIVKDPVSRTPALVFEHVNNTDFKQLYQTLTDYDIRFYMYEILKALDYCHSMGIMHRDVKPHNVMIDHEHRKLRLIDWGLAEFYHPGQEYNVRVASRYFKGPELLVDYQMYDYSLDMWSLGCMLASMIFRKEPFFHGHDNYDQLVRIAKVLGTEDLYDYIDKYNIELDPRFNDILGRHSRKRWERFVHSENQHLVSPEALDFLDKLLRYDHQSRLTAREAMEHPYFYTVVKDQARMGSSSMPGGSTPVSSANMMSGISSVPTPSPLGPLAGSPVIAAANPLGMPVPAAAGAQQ
FGFR4, sequence (P22455 whole entry): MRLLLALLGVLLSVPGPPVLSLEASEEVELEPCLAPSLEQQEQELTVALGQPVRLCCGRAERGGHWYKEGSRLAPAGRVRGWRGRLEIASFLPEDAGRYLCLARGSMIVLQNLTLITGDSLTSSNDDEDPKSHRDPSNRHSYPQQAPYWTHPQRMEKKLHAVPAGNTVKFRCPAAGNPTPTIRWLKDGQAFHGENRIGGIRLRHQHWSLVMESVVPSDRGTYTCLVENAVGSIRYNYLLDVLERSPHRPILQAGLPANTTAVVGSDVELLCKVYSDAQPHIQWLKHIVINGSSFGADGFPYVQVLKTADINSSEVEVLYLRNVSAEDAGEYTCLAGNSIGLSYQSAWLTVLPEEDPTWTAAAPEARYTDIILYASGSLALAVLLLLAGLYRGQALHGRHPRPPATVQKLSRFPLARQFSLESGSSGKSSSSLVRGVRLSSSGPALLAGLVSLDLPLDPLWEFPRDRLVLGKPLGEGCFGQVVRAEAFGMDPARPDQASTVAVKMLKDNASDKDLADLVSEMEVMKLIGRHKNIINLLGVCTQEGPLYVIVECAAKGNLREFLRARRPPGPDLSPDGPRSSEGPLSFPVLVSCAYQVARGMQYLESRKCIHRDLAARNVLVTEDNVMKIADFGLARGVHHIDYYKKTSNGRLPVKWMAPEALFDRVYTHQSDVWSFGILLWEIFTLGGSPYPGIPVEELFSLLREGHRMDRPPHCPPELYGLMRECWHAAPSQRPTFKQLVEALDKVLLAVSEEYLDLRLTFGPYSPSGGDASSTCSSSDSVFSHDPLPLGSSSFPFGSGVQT
FGFR2, sequence (P21802 whole entry): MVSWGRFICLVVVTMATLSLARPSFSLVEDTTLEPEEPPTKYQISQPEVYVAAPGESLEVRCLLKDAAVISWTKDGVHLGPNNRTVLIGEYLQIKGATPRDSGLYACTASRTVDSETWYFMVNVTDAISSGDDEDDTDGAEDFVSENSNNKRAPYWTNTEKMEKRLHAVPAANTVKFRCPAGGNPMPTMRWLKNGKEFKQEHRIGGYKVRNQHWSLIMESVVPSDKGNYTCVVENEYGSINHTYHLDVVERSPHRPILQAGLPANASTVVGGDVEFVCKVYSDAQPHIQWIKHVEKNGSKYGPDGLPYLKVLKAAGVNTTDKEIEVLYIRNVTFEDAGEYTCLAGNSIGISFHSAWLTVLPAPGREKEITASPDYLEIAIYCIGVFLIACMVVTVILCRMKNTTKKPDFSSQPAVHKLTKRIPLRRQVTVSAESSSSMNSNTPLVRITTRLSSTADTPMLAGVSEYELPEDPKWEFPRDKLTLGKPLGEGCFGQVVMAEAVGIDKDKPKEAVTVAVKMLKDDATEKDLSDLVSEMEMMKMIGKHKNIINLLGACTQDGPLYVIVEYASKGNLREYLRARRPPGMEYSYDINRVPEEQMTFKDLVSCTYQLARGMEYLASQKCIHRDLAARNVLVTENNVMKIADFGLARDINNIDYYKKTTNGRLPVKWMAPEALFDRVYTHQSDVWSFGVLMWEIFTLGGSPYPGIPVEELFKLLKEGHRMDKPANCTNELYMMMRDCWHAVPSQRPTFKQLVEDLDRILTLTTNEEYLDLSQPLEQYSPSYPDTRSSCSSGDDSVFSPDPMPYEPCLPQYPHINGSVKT

Work on `CNS(=O)(=O)c1ccc(N(C)C)c(Nc2nc(C)nc3cc(OC)c(OC)cc23)c1` [compound 15, 3-((6,7-dimethoxy-2-methylquinazolin-4-yl)amino)-4-(dimethylamino)-N-methylbenzenesulfonamide] yielded an inhibition at 1 µM (MEK5) of 92%, an inhibition at 1 µM (CSNK2A1) of 18% and an inhibition at 1 µM (FGFR2) of 0%. The inhibition at 1 µM [1] was 0%, the inhibition at 1 µM (PRKD2) was 13% and the inhibition at 1 µM (PIM3) was 3%. It also gave an inhibition at 1 µM (FGFR4) of 4%, an inhibition at 1 µM (PCTK3) of 0% and an inhibition at 1 µM (CDK3) of 56%. The inhibition at 1 µM (TESK1) was 1%, the inhibition at 1 µM (CDK4-cyclinD3) was 15% and the inhibition at 1 µM (ITK) was 0%. For the same compound, the inhibition at 1 µM (MKNK1) was 4%, the inhibition at 1 µM (KIT(V559D)) was 0% and the inhibition at 1 µM (NEK7) was 2%. The inhibition at 1 µM (AURKB) was 3%, the inhibition at 1 µM [2] was 0% and the inhibition at 1 µM (MLK3) was 0%. For the same compound, the inhibition at 1 µM (DRAK2) was 0%, the inhibition at 1 µM (PIK3CD) was 37% and the inhibition at 1 µM (ERK4) was 0%. It also gave an inhibition at 1 µM (CSNK1G3) of 0% and an inhibition at 1 µM (CAMK1B) of 28%.
For `CNS(=O)(=O)c1ccc(N(C)C)c(Nc2ncnc3cc(OC)c(OC)cc23)c1` [compound 7, 3-((6,7-dimethoxyquinazolin-4-yl)amino)-4-(dimethylamino)-N-methylbenzenesulfonamide], the inhibition at 1 µM (GAK) was 92%, the inhibition at 1 µM (MEK5) was 100% and the inhibition at 1 µM (STK36) was 94%.
